Source: ChEMBL document CHEMBL1629667, “Activities of dalbavancin against a worldwide collection of 81,673 gram-positive bacterial isolates” (2009)
≈ marks a conversion by molar mass, not a printed value.

Tests used:
Type in all cases: functional
Enterococcus faecalis [1] = assay: Antimicrobial activity against Enterococcus faecalis VanA assessed as growth inhibition at 0.25 ug/ml by broth microdilution method
Enterococcus faecalis [2] = assay: Antimicrobial activity against Enterococcus faecalis VanB assessed as growth inhibition at 1 ug/ml by broth microdilution method
Enterococcus faecalis [3] = assay: Antimicrobial activity against Enterococcus faecalis VanA assessed as growth inhibition at =<[…] ug/ml by broth microdilution method
Enterococcus faecium [4] = assay: Antimicrobial activity against Enterococcus faecium VanA assessed as growth inhibition at 1 ug/ml by broth microdilution method
Staphylococcus aureus [5] = assay: Antimicrobial activity against Oxacillin-susceptible Staphylococcus aureus assessed as percent susceptible isolate by broth microdilution method
Enterococcus faecium [6] = assay: Antimicrobial activity against Enterococcus faecium VanB assessed as growth inhibition at =<[…] ug/ml by broth microdilution method
Staphylococcus aureus [7] = assay: Antimicrobial activity against Oxacillin-resistant Staphylococcus aureus assessed as percent susceptible isolate by broth microdilution method
Staphylococcus [8] = assay: Antimicrobial activity against Oxacillin-resistant coagulase-negative Staphylococcus assessed as percent susceptible isolate by broth microdilution method
[9] = system: Streptococcus sp. 'group A'; assay: Antimicrobial activity against Beta-hemolytic Streptococcus sp. 'group A' assessed as growth inhibition at 0.25 ug/ml by broth microdilution method
Staphylococcus [10] = assay: Antimicrobial activity against Oxacillin-susceptible coagulase-negative Staphylococcus assessed as percent resistant isolate by broth microdilution method
Staphylococcus aureus [11] = assay: Antimicrobial activity against Oxacillin-susceptible Staphylococcus aureus by broth microdilution method
Staphylococcus aureus [12] = assay: Antimicrobial activity against Oxacillin-resistant Staphylococcus aureus assessed as percent resistant isolate by broth microdilution method
Staphylococcus [13] = assay: Antimicrobial activity against Oxacillin-resistant coagulase-negative Staphylococcus by broth microdilution method
Staphylococcus [14] = assay: Antimicrobial activity against Oxacillin-susceptible coagulase-negative Staphylococcus by broth microdilution method
Enterococcus faecalis [15] = assay: Antimicrobial activity against Enterococcus faecalis VanB assessed as growth inhibition at =<[…] ug/ml by broth microdilution method
Enterococcus faecalis [16] = assay: Antimicrobial activity against Enterococcus faecalis VanB assessed as growth inhibition at 0.25 ug/ml by broth microdilution method
Enterococcus faecium [17] = assay: Antimicrobial activity against Enterococcus faecium VanB assessed as growth inhibition at 4 ug/ml by broth microdilution method
Enterococcus faecalis [18] = assay: Antimicrobial activity against Enterococcus faecalis VanB assessed as growth inhibition at 0.12 ug/ml by broth microdilution method
Enterococcus faecium [19] = assay: Antimicrobial activity against Enterococcus faecium VanA assessed as growth inhibition at =<[…] ug/ml by broth microdilution method
Enterococcus faecalis [20] = assay: Antimicrobial activity against Enterococcus faecalis VanB assessed as growth inhibition at 0.5 ug/ml by broth microdilution method
[21] = Antimicrobial activity against Beta-hemolytic Streptococcus sp. 'group G' assessed as growth inhibition at 0.06 ug/ml by broth microdilution method
Enterococcus faecalis [22] = assay: Antimicrobial activity against Enterococcus faecalis VanA assessed as growth inhibition at 0.12 ug/ml by broth microdilution method
Enterococcus faecalis [23] = assay: Antimicrobial activity against Enterococcus faecalis VanA assessed as growth inhibition at 0.06 ug/ml by broth microdilution method
Enterococcus faecium [24] = assay: Antimicrobial activity against Enterococcus faecium VanA assessed as growth inhibition at 0.5 ug/ml by broth microdilution method
[25] = system: Streptococcus sp. 'group B'; assay: Antimicrobial activity against Beta-hemolytic Streptococcus sp. 'group B' assessed as growth inhibition at 0.06 ug/ml by broth microdilution method
Enterococcus faecalis [26] = assay: Antimicrobial activity against Enterococcus faecalis VanA assessed as growth inhibition at 1 ug/ml by broth microdilution method
Enterococcus faecium [27] = assay: Antimicrobial activity against Enterococcus faecium VanA assessed as growth inhibition at 0.25 ug/ml by broth microdilution method
Enterococcus faecium [28] = assay: Antimicrobial activity against Enterococcus faecium VanA assessed as growth inhibition at 2 ug/ml by broth microdilution method
Staphylococcus [29] = assay: Antimicrobial activity against Oxacillin-susceptible coagulase-negative Staphylococcus assessed as percent susceptible isolate by broth microdilution method
[30] = system: Streptococcus sp. 'group A'; assay: Antimicrobial activity against Beta-hemolytic Streptococcus sp. 'group A' assessed as growth inhibition at 0.12 ug/ml by broth microdilution method
Streptococcus sp. [31] = assay: Antimicrobial activity against Beta-hemolytic Streptococcus sp. Group F assessed as growth inhibition at 0.06 ug/ml by broth microdilution method
Enterococcus faecalis [32] = assay: Antimicrobial activity against Enterococcus faecalis VanA assessed as growth inhibition at 0.5 ug/ml by broth microdilution method
[33] = system: Streptococcus sp. 'group B'; assay: Antimicrobial activity against Beta-hemolytic Streptococcus sp. 'group B' assessed as growth inhibition at =<[…] ug/ml by broth microdilution method
Enterococcus faecalis [34] = assay: Antimicrobial activity against Enterococcus faecalis VanB assessed as growth inhibition at 4 ug/ml by broth microdilution method
Staphylococcus aureus [35] = assay: Antimicrobial activity against Oxacillin-resistant Staphylococcus aureus by broth microdilution method
[36] = Antimicrobial activity against Beta-hemolytic Streptococcus sp. 'group G' assessed as growth inhibition at 0.12 ug/ml by broth microdilution method
Enterococcus faecium [37] = assay: Antimicrobial activity against Enterococcus faecium VanA assessed as growth inhibition at 0.06 ug/ml by broth microdilution method
Staphylococcus [38] = assay: Antimicrobial activity against Oxacillin-resistant coagulase-negative Staphylococcus assessed as percent resistant isolate by broth microdilution method
[39] = system: Streptococcus sp. 'group A'; assay: Antimicrobial activity against Beta-hemolytic Streptococcus sp. 'group A' assessed as growth inhibition at 0.06 ug/ml by broth microdilution method
Enterococcus faecium [40] = assay: Antimicrobial activity against Enterococcus faecium VanA assessed as growth inhibition at 4 ug/ml by broth microdilution method
Enterococcus faecium [41] = assay: Antimicrobial activity against Enterococcus faecium VanA assessed as growth inhibition at 0.12 ug/ml by broth microdilution method
Enterococcus faecium [42] = assay: Antimicrobial activity against Enterococcus faecium VanB assessed as growth inhibition at 0.25 ug/ml by broth microdilution method
Staphylococcus aureus [43] = assay: Antimicrobial activity against Oxacillin-susceptible Staphylococcus aureus assessed as percent resistant isolates by broth microdilution method
Streptococcus = assay: Antimicrobial activity against Beta-hemolytic Streptococcus by broth microdilution method
Enterococcus faecalis [44] = assay: Antimicrobial activity against Enterococcus faecalis VanB assessed as growth inhibition at 2 ug/ml by broth microdilution method
Streptococcus sp. [45] = assay: Antimicrobial activity against Beta-hemolytic Streptococcus sp. Group F assessed as growth inhibition at 0.12 ug/ml by broth microdilution method
Enterococcus faecium [46] = assay: Antimicrobial activity against Enterococcus faecium VanB assessed as growth inhibition at 2 ug/ml by broth microdilution method
Enterococcus faecalis [47] = assay: Antimicrobial activity against Enterococcus faecalis VanA assessed as growth inhibition at 4 ug/ml by broth microdilution method

## CN[C@H](CC(C)C)C(=O)N[C@H]1C(=O)N[C@@H](CC(N)=O)C(=O)N[C@H]2C(=O)N[C@H]3C(=O)N[C@H](C(=O)N[C@H](C(=O)O)c4cc(O)cc(O)c4-c4cc3ccc4O)[C@H](O)c3ccc(c(Cl)c3)Oc3cc2cc(c3O[C@@H]2O[C@H](CO)[C@@H](O)[C@H](O)[C@H]2O[C@H]2C[C@](C)(N)[C@H](O)[C@H](C)O2)Oc2ccc(cc2Cl)[C@H]1O [VANCOMYCIN]
Enterococcus faecalis [1]
  inhibition at 0.25 µg/mL: 3.9%
Enterococcus faecalis [2]
  inhibition at 1 µg/mL: 78.6%
Enterococcus faecalis [3]
  inhibition (INH): 0.4%
Enterococcus faecium [4]
  inhibition at 1 µg/mL: 11.5%
Staphylococcus aureus [5]
  Activity: >99.9%
Enterococcus faecium [6]
  inhibition (INH): 26.1%
Staphylococcus aureus [7]
  Activity: >99.9%
Staphylococcus [8]
  Activity: >99.9%
[9]
  inhibition at 0.25 µg/mL: 100%
Staphylococcus [10]
  Activity: 0%
Staphylococcus aureus [11]
  MIC50: 1 µg/mL (≈ 0.69 µM)
  MIC90: 1 µg/mL (≈ 0.69 µM)
Staphylococcus aureus [12]
  Activity: 0%
Staphylococcus [13]
  MIC50: 1 µg/mL (≈ 0.69 µM)
  MIC90: > 2 µg/mL
Staphylococcus [14]
  MIC50: 1 µg/mL (≈ 0.69 µM)
  MIC90: 2 µg/mL (≈ 1.38 µM)
Enterococcus faecalis [15]
  inhibition (INH): 9.5%
Enterococcus faecalis [16]
  inhibition at 0.25 µg/mL: 70.2%
Enterococcus faecium [17]
  inhibition at 4 µg/mL: 97.8%
Enterococcus faecalis [18]
  inhibition at 0.12 µg/mL: 70.2%
Enterococcus faecium [19]
  inhibition (INH): 0.1%
Enterococcus faecalis [20]
  inhibition at 0.5 µg/mL: 75%
[21]
  inhibition at 0.06 µg/mL: 99.6%
Enterococcus faecalis [22]
  inhibition at 0.12 µg/mL: 2.6%
Enterococcus faecalis [23]
  inhibition at 0.06 µg/mL: 0.9%
Enterococcus faecium [24]
  inhibition at 0.5 µg/mL: 6.6%
[25]
  inhibition at 0.06 µg/mL: 98%
Enterococcus faecalis [26]
  inhibition at 1 µg/mL: 4.3%
Enterococcus faecium [27]
  inhibition at 0.25 µg/mL: 3.1%
Enterococcus faecium [28]
  inhibition at 2 µg/mL: 18.3%
Staphylococcus [29]
  Activity: 100%
[30]
  inhibition at 0.12 µg/mL: > 99.9%
Streptococcus sp. [31]
  inhibition at 0.06 µg/mL: 97.1%
Enterococcus faecalis [32]
  inhibition at 0.5 µg/mL: 4.3%
[33]
  inhibition (INH): 90.3%
Enterococcus faecalis [34]
  inhibition at 4 µg/mL: 91.7%
Staphylococcus aureus [35]
  MIC50: 1 µg/mL (≈ 0.69 µM)
  MIC90: 1 µg/mL (≈ 0.69 µM)
[36]
  inhibition at 0.12 µg/mL: 100%
Enterococcus faecium [37]
  inhibition at 0.06 µg/mL: 0.3%
Staphylococcus [38]
  Activity: 0%
[39]
  inhibition at 0.06 µg/mL: 99.9%
Enterococcus faecium [40]
  inhibition at 4 µg/mL: 33.1%
Enterococcus faecium [41]
  inhibition at 0.12 µg/mL: 1.2%
Enterococcus faecium [42]
  inhibition at 0.25 µg/mL: 77.6%
Staphylococcus aureus [43]
  Activity: 0%
Streptococcus
  MIC50: 0.5 µg/mL (≈ 0.345 µM)
  MIC90: 0.5 µg/mL (≈ 0.345 µM)
Enterococcus faecalis [44]
  inhibition at 2 µg/mL: 85.7%
Streptococcus sp. [45]
  inhibition at 0.12 µg/mL: 100%
Enterococcus faecium [46]
  inhibition at 2 µg/mL: 94%
Enterococcus faecalis [47]
  inhibition at 4 µg/mL: 14.8%
